Experimental data taken from PMC6009904, “Carbonic anhydrase inhibitory properties of some uracil derivatives” (Journal of Enzyme Inhibition and Medicinal Chemistry, 2017).

Key:
hCA II = molecular target: T1, hCA II (Homo sapiens, UniProt P00918); assay: hCA II inhibition, esterase assay with 4-nitrophenylacetate as substrate; type: biochemical; conditions: 4-nitrophenylacetate substrate, mean from at least three determinations, enzyme purified from human erythrocytes
T1 construct: we have purified CA I and II (hCA I and hCA II) from human erythrocytes; from tissue; host or cells: human erythrocytes (fresh human blood)
Method: (§1) Erythrocytes were purified from fresh human blood obtained from the Blood Centre of the Research Hospital at Atatürk University. The blood samples were centrifuged at 1500 rpm for 15 min and the plasma and buffy coat were removed. The red cells were isolated and washed twice with 0.9% NaCl, and hemolysed with 1.5 volumes of ice-cold water. The ghost and intact cells were removed by centrifugation at 20 000 rpm for 30 min at 4 °C. The pH of the hemolysate was adjusted to 8.7 with solid Tris[18]. Firstly, benzoyl chloride and stirred for four hours at room temperature in CH2Cl2 cellulose. After the spacer arm cellulose added as a benzyl group and finally diazotized sulfanilamide clamped to the para position of benzyl group as ligand. The hemolysate was applied to the prepared cellulose-benzyl-sulfanylamide affinity column equilibrated with 25 mM Tris-HCl/0.1 M Na2SO4 (pH 8.7). The affinity gel was washed with 25 mM Tris-HCl/22 mM Na2SO4 (pH 8.7). The human carbonic anhydrase (hCA I and hCA II) isozymes were eluted with 1 M NaCl/25 mM Na2HPO4 (pH 6.3) and 0.1 M CH3COONa/0.5 M NaClO4 (pH 5.6), respectively. All procedures were performed at 4 °C[16].
(§2) Enzyme activity was determined spectrophotometrically by following the change in absorbance at 348 nm of 4-nitrophenylacetate to 4-nitrophenylate over a period of 3 min at 25 °C[19–21]. The enzymatic reaction contained 1.4 mL 0.05 M Tris-SO4 buffer (pH 7.4), 1 mL 3 mM 4-nitrophenylacetate, 0.5 mL H2O and 0.1 mL enzyme solution, in a total volume of 3.0 mL[22]. Inhibitory effects of compounds 4–12 were compared with phenolic compounds 13–15. Different inhibitor concentrations were used and all compounds were tested in triplicate at each concentration used. Control cuvette activity was acknowledged as 100% in the absence of inhibitor. An Activity% – [Inhibitor] graph was drawn for each inhibitor[22–24]. The curve-fitting algorithm allowed to obtain the IC50 values, working at the lowest concentration of substrate of 0.15 mM, from which KI values were calculated[25]^,[26]. The catalytic activity of these enzymes was calculated from Lineweaver–Burk plots, as reported earlier, and represent the mean from at least three different determinations. The CA I and II isoenzymes used here were purified from human blood as described earlier.

hCA I = molecular target: T2, hCA I (Homo sapiens, UniProt P00915); assay: hCA I inhibition, esterase assay with 4-nitrophenylacetate as substrate; type: biochemical; conditions: 4-nitrophenylacetate substrate, mean from at least three determinations, enzyme purified from human erythrocytes
T2 construct: we have purified CA I and II (hCA I and hCA II) from human erythrocytes; from tissue; host or cells: human erythrocytes (fresh human blood)
Method: as §1, §2

T2 sequence (P00915 whole entry): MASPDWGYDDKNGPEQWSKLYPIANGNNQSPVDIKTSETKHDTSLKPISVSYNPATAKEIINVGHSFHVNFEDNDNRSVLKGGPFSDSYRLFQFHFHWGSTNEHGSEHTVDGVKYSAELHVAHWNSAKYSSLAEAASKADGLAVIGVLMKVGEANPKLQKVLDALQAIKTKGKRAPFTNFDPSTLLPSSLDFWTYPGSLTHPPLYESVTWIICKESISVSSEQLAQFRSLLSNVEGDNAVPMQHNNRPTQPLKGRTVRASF

| SMILES | Ki (hCA II) | Ki (hCA I) |
| --- | --- | --- |
| Cn1c(N)cc(=O)n(C)c1=O [6-Amino 1,3-Dimethyluracil (11), 6-Amino 1,3-Dimethyluracil] | 172 nM | 85 nM |
| O=C(O)c1c[nH]c(=O)[nH]c1=O [Isoorotic acid (10), isoorotic acid] | 1430 nM | 459 nM |
| O=C(O)c1cc(=O)[nH]c(=O)[nH]1 [Orotic acid (9), Orotic acid] | 1680 nM | 732 nM |
| Cn1c(N)c(N)c(=O)n(C)c1=O [5,6-Diamino 1,3-Dimethyluracil (12), 5,6-Diamino 1,3-Dimethyluracil] | 236 nM | 104 nM |
